Test results reported in paper PMC3927924, “Bisubstrate UDP–peptide conjugates as human O-GlcNAc transferase inhibitors” (Biochemical Journal, 2014).
Entries after “also recorded” stand apart in the source; their conditions may differ. One block for each molecule: values may come before it. Where a SMILES comes first, the peptide text is derived from it. Where no end group is shown, it is not given here. Side-chain parts run from the residue outwards. The star is where a group is joined. Propyl(3-UDP) = O=c1ccn([C@@H]2O[C@H](COP(=O)(O)OP(=O)(O)OCCC*)[C@@H](O)[C@H]2O)c(=O)[nH]1; X1 = O=c1ccn([C@@H]2O[C@H](COP(=O)(O)OP(=O)(O)OCCCC*)[C@@H](O)[C@H]2O)c(=O)[nH]1; C3 linker = three-carbon linker from the acceptor serine to UDP; C4 linker = four-carbon linker from the acceptor serine to UDP

Tests used:
[1] = biological target: T1, SmNodC (Sinorhizobium meliloti NodC) (Rhizobium meliloti, UniProt P04341); assay: Coupled fluorigenic in vitro assay of GlcNAc transferase SmNodC; format: biochemical; conditions: 1 mM–0.46 μM compound
T1 sequence (P04341 1-426): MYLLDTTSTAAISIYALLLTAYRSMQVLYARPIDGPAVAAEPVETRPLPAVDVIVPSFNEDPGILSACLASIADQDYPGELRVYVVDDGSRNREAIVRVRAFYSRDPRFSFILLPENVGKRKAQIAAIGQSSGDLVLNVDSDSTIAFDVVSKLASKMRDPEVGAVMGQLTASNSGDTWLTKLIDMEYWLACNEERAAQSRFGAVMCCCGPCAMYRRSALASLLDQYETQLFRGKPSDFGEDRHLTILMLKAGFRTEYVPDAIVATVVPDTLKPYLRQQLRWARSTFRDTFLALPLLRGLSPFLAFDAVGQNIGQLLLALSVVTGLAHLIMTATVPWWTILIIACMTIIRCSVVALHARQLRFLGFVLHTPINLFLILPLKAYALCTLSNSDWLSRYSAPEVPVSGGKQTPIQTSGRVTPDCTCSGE
Procedure: Figure S4 The bacterial GlcNAc transferase NodC is not inhibited by goblin1 7.27–7.20 (m, 4H), 7.16 (t, J 8.2 Hz, 4H), 6.31 (d, J 8.2 Hz, 1H), Sm NodC, a GlcNAc transferase from Sinorhizobium meliloti that utilizes UDP-GlcNAc to 5.11–4.95 (m, 4H), 4.61 (dt, J 8.2, 3.0 Hz, 1H), 4.41 (dd, J 10.5, synthesize chito-oligosaccharides, was assayed to investigate the selectivity of goblin1. A 7.2 Hz, 1H), 4.31 (dd, J 10.5, 7.5 Hz, 1H), 4.24–4.14 (m, 2H), coupled ﬂuorigenic in vitro assay was performed in the presence of 1 mM–0.46 μM of goblin1, 4.10 (dq, J 11.2, 5.9 Hz, 1H), 3.92 (dd, J 9.5, 3.3 Hz, 1H), 3.79 12, 17 and UDP. The assay (details available from D. M. F. v. A. on request) relies on (dd, J 9.5, 2.9 Hz, 1H), 3.58 (dt, J 10.4, 5.4 Hz, 1H), 3.47 (dt, the elongation of 4-methylumbellifer yl-N -acetyl-β 1,4-glucosamine by the GlcNAc transferase J 9.8, 6.0 Hz, 1H), 2.37 (s, 3H), 2.35 (s, 3H), 1.8 (m, 1H), 1.7 Sm NodC, and subsequent hydrolysis of the reaction products by Aspergillus fumigatus chitinase (m, 1H), 1.60 (m, 2H); 13 C NMR (126 MHz, [2 H]chloroform) […]
4-parameter IC50 equation in the GraphPad Prism program (http://www.graphpad.com). […]
Beamline, wavelength (A˚) ID 23-1, 0.981ture was stirred for 16 h at room temperature. The reaction Space group P 321was quenched by the addition of methanol, stirred for 30 min Cell dimensions˚) 273.7, 142.6and concentrated. The residue was partitioned between ethyl […]
Resolution (A acetate and 10 % aqueous citric acid solution and the layers R merge 0.136 (0.505)were separated. The organic layer was washed successively with I /σ I 9.2 (3.1)water and a mixture of saturated NaHCO3 solution and brine.
Completeness (%) 99.2 (99.7)The aqueous layer was additionally extracted with the same Redundancy 4.3 (4.5)portion of ethyl acetate. The combined organic layer was dried and Reﬁnement ˚) 30–3.15concentrated. The residue was puriﬁed by ﬂash chromatography […]

hOGT [2] = biological target: hOGT; set-up: method as in PMID 23103942; conditions: cited from earlier work
hOGT [3] = biological target: hOGT; set-up: method as in PMID 21258330; conditions: read-out: Ki for hOGT in vitro; cited from earlier work
hOGT-(312–1031) [4] = biological target: T2, hOGT-(312–1031) (Homo sapiens, UniProt O15294); assay: In vitro glycosylation of peptide substrate KKENSPAVTPVSTA by hOGT, fluorimetric UDP detection; format: biochemical; conditions: 10 μM peptide KKENSPAVTPVSTA, 3.2 μM UDP-GlcNAc, 50 nM hOGT
T2 construct: Reactions contained 50 nM hOGT-(312–1031) in 50 mM Tris/HCl; made in house
T2 sequence (O15294 312-1031 isoform O15294-3): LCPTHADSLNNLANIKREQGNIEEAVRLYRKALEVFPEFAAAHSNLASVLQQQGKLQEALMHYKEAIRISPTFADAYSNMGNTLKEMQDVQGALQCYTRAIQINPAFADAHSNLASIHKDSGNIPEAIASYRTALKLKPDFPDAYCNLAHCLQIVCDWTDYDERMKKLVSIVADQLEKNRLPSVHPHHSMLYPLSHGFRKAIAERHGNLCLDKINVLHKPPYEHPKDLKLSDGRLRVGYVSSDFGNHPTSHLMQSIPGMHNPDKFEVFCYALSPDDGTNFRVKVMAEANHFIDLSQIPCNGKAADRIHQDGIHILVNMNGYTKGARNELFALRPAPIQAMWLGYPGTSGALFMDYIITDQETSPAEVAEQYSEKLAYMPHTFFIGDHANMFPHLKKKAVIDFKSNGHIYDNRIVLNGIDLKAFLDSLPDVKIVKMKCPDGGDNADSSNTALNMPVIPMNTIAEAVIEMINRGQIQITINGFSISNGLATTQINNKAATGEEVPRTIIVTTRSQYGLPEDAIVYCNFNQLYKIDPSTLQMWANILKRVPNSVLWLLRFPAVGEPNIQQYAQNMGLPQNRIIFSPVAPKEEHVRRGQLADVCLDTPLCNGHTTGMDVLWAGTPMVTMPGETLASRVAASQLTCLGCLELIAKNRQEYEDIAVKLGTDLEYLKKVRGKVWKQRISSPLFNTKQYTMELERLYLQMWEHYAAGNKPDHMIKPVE
Procedure: Reactions contained 50 nM hOGT-(312–1031) in 50 mM Tris/HCl (pH 7.5), 0.1 mg/ml BSA, 10 μM sodium dithionate and 10 μM peptide (KKENSPAVTPVSTA) and various amounts of inhibitors in a total volume of 100 μl. Reaction mixtures were pre-incubated for 15 min and started by addition of UDP-GlcNAc to a final concentration of 3.2 μM. After 30 min of incubation at 22°C, assays were stopped by adding 200 μl of 25 mM Hepes (pH 7.4), 10 mM NaCl, 50% (v/v) methanol and 15 μM fluorophore, a UDP-sensitive xanthene-based Zn(II) complex prepared as described in [19, 20]. Product formation was detected fluorimetrically on a Gemini EM fluorescence microplate reader (Molecular Devices) at excitation and emission wavelengths of 485 nm and 530 nm respectively. A non-linear regression curve fit was performed with Prism.

hOGT-(312–1031) [5] = biological target: T2, hOGT-(312–1031); assay: In vitro glycosylation of hTAB1 by hOGT, Western blot with TAB1-gSer395 antibody and densitometry; format: biochemical; conditions: 1 μM TAB1-(7–402), 10 μM UDP-GlcNAc, Western blot densitometric quantification; read-out: IC50, O-GlcNAcylation of substrate protein TAB1
Procedure: Reaction mixtures containing 1 μM TAB1-(7–402) protein [TAB1 is TGF (transforming growth factor)-β-activated kinase-binding protein 1] (purified as described previously), 0.125 μM hOGT-(312–1031) and 10 μM UDP-GlcNAc in a buffer of 50 mM Tris/HCl (pH 7.5) and 1 mM DTT were incubated at 37°C for 90 min, separated by SDS/PAGE (10% gels) and transferred on to nitrocellulose membranes. Membranes were probed with a TAB1-gSer^395 (O-GlcNAcylated Ser^395) O-GlcNAc site-specific antibody, followed by an IR800-labelled secondary antibody and analysed using a LI-COR Odyssey scanner and associated quantification software. Data were fitted to a four-parameter equation for dose-dependent inhibition using GraphPad Prism 5.0.

hOGT-(312–1031) [6] = biological target: T2, hOGT-(312–1031); assay: Biolayer interferometry binding to immobilized biotinylated hOGT-(312-1031); conditions: 25°C
Procedure: Measurements were made on a ForteBio Octet RED384 instrument at 25°C. Biotinylated hOGT-(312–1031) was prepared at 25 μg/ml in TBS (25 mM Tris/HCl, pH 7.5, and 150 mM NaCl) buffer containing 1 mM DTT and immobilized on superstreptavidin biosensors. Free streptavidin sites were blocked by incubation with biocytin. A parallel set of superstreptavidin biosensors were prepared with biotinylated streptavidin to act as a control. The assay was carried out in 384-well plates with a sample volume of 100 μl. Inhibitor solutions were prepared from solid stocks and dissolved in assay buffer and a concentration series of 3-fold dilutions from a top concentration of 100 μM was created. Cycles for analysis involved obtaining a 30 s baseline followed by a 60 s association step and a 120 s dissociation step. The assay was repeated with the reference biosensors to correct for non-specific interactions and the entire assay was repeated in triplicate for both compounds. Data were processed and kinetic parameters were calculated using ForteBio software.

[7] = biological target: T3, goblin1 (UDP-peptide conjugate 14a); assay: biolayer interferometry
T3 chain: VTPVS([C3 linker-UDP])TA-NH2

[8] = biological target: T4, goblin2 (UDP-peptide conjugate 14b); assay: biolayer interferometry
T4 chain: VTPVS([C4 linker-UDP])TA-NH2

IC50 [1]: 90 µM
Molecule: O=c1ccn([C@@H]2O[C@H](COP(=O)(O)OP(=O)(O)O)[C@@H](O)[C@H]2O)c(=O)[nH]1 [UDP, reference compound]
Kd (hOGT [2]): 0.5 µM

Molecule: CC(=O)N[C@@H]1[C@@H](O)[C@H](O)[C@@H](CO)S[C@@H]1OP(=O)(O)OP(=O)(O)OC[C@H]1O[C@@H](n2ccc(=O)[nH]c2=O)[C@H](O)[C@@H]1O [UDP-5S-GlcNAc]
Ki (hOGT [3]): 8 µM

Molecule: CC(=O)N[C@H]1[C@@H](OP(=O)(O)OP(=O)(O)OC[C@H]2O[C@@H](n3ccc(=O)[nH]c3=O)[C@H](O)[C@@H]2O)O[C@H](CO)[C@@H](O)[C@@H]1O [UDP-GlcNAc]
fold higher Kd than for UDP (hOGT [2]; biophysical determination): 30 fold

Molecule: COCCCOP(=O)(O)OP(=O)(O)OC[C@H]1O[C@@H](n2ccc(=O)[nH]c2=O)[C@H](O)[C@@H]1O [compound 17]
SmNodC inhibition [1]: not inhibited | IC50 (hOGT-(312–1031) [4]): 300 µM

Molecule: CC(=O)N[C@H](C(=O)N[C@H](C(=O)N1CCC[C@H]1C(=O)N[C@H](C(=O)N[C@@H](COCCCOP(=O)(O)OP(=O)(O)OC[C@H]1O[C@@H](n2ccc(=O)[nH]c2=O)[C@H](O)[C@@H]1O)C(=O)N[C@H](C(=O)N[C@@H](C)C(N)=O)[C@@H](C)O)C(C)C)[C@@H](C)O)C(C)C [goblin1] (Ac-VTPVS(Propyl(3-UDP))TA-NH2)
SmNodC inhibition [1]: not an inhibitor; also recorded: not inhibited | IC50 (hOGT-(312–1031) [5]): 8 µM | IC50 (hOGT-(312–1031) [4]): 18 µM | Kd (hOGT-(312–1031) [6]): 7.9 µM

Molecule: CC(=O)N[C@H](C(=O)N[C@H](C(=O)N1CCC[C@H]1C(=O)N[C@H](C(=O)N[C@@H](COCCCCOP(=O)(O)OP(=O)(O)OC[C@H]1O[C@@H](n2ccc(=O)[nH]c2=O)[C@H](O)[C@@H]1O)C(=O)N[C@H](C(=O)N[C@@H](C)C(N)=O)[C@@H](C)O)C(C)C)[C@@H](C)O)C(C)C [goblin2] (Ac-VTPVS(X1)TA-NH2)
IC50 (hOGT-(312–1031) [4]): 40 µM | Kd (hOGT-(312–1031) [6]): 4.9 µM

Kd [7]: 7.9 µM | Kd [8]: 4.9 µM
B1: O-GlcNAc transferase (hOGT) 312-1031 (protein)
chain: AEDCYNTALRLCPTHADSLNNLANIKREQGNIEEAVRLYRKALEVFPEFAAAHSNLASVLQQQGKLQEALMHYKEAIRISPTFADAYSNMGNTLKEMQDVQGALQCYTRAIQINPAFADAHSNLASIHKDSGNIPEAIASYRTALKLKPDFPDAYCNLAHCLQIVCDWTDYDERMKKLVSIVADQLEKNRLPSVHPHHSMLYPLSHGFRKAIAERHGNLCLDKINVLHKPPYEHPKDLKLSDGRLRVGYVSSDFGNHPTSHLMQSIPGMHNPDKFEVFCYALSPDDGTNFRVKVMAEANHFIDLSQIPCNGKAADRIHQDGIHILVNMNGYTKGARNELFALRPAPIQAMWLGYPGTSGALFMDYIITDQETSPAEVAEQYSEKLAYMPHTFFIGDHANMFPHLKKKAVIDFKSNGHIYDNRIVLNGIDLKAFLDSLPDVKIVKMKCPDGGDNADSSNTALNMPVIPMNTIAEAVIEMINRGQIQITINGFSISNGLATTQINNKAATGEEVPRTIIVTTRSQYGLPEDAIVYCNFNQLYKIDPSTLQMWANILKRVPNSVLWLLRFPAVGEPNIQQYAQNMGLPQNRIIFSPVAPKEEHVRRGQLADVCLDTPLCNGHTTGMDVLWAGTPMVTMPGETLASRVAASQLTCLGCLELIAKNRQEYEDIAVKLGTDLEYLKKVRGKVWKQRISSPLFNTKQYTMELERLYLQMWEHYAAGN
